BigSolDB 2.1

O=c1cc(CO)occ1O
solubility (mole fraction)
Conditions | 278.15 K | 283.15 K | 288.15 K | 293.15 K | 298.15 K | 303.15 K | 308.15 K | 313.15 K | 318.15 K | 323.15 K
in THF | 0.00384 | 0.00435 | 0.00541 | 0.00663 | 0.00799 | 0.00961 | 0.0116 | 0.0134 | 0.017 | 0.0199
in acetonitrile | 0.00062 | 0.00078 | 0.00097 | 0.00122 | 0.00151 | 0.00184 | 0.00226 | 0.00276 | 0.00341 | 0.00424
in isopropanol | 0.00213 | 0.00266 | 0.0032 | 0.00392 | 0.00478 | 0.00557 | 0.00667 | 0.00814 | 0.00974 | 0.0116
in methyl acetate | 0.00085 | 0.0011 | 0.00141 | 0.00172 | 0.00213 | 0.0026 | 0.00317 | 0.00385 | 0.00467 | 0.00556
in n-butanol | 0.00193 | 0.00242 | 0.00289 | 0.00364 | 0.00452 | 0.00538 | 0.00646 | 0.00779 | 0.00935 | 0.011
in n-pentanol | 0.00185 | 0.00222 | 0.0028 | 0.00392 | 0.00417 | 0.00506 | 0.00611 | 0.00733 | 0.00882 | 0.0106
in sec-butanol | 0.00202 | 0.00245 | 0.00315 | 0.00387 | 0.00465 | 0.0057 | 0.0069 | 0.00817 | 0.00981 | 0.0117
